From patent US6706663B2, “Herbicidal 3-heterocyclic substituted benzisothiazole and benzisoxazole compounds” (Wyeth, priority 2000, dated 2004)

Columns and labels:
[1] = test system: ABUTH (Abutilon theophrasti); test: Postemergence herbicidal evaluation; type: in vivo, Medic.; conditions: postemergence
Summary of the method: (§1)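 Visual 0–9 injury scores versus control plants, covering stand, vigour, malformation, size, chlorosis and general appearance, taken four to five weeks post-spray and averaged over replicate tests. Plants were sprayed at roughly two weeks old and held on greenhouse benches.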

GALAP (Galium aparine) [2] = test: Postemergence herbicidal evaluation; type: in vivo; conditions: postemergence
Summary of the method: as §1

[3] = test system: IPOHE (Ipomoea hederacea); test: Postemergence herbicidal evaluation; type: in vivo, (L.) Jacq.; conditions: postemergence
Summary of the method: as §1

SETVI (Setaria viridis) [4] = test: Postemergence herbicidal evaluation; type: in vivo, (L.) Beau; conditions: postemergence
Summary of the method: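 First, seedlings are raised in flats for about two weeks. Next, compound dispersed in 50/50 acetone/water with 0.5% TWEEN 20 is sprayed at 40 psi to deliver about 0.0040–1.000 kg/ha. Plants are then maintained in the greenhouse and rated 0-9 after four to five weeks.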

[5] = test system: GLXMAW (Soybean, Williams); test: Postemergence herbicidal evaluation; type: in vivo, Glycine max, (L.) Merr. cv Williams; conditions: postemergence
Summary of the method: as §1

[6] = test system: TRZAWR (Wheat, Winter, cv Riband); test: Postemergence herbicidal evaluation; type: in vivo, Triticum aestivum; conditions: postemergence
Summary of the method: as §1

[7] = test system: ABUTH (Abutilon theophrasti); test: Preemergence herbicidal evaluation; type: in vivo, Medic.; conditions: rated 4-5 weeks after treatment
[8] = test system: AMBEL (Ambrosia artemisifolia); test: Preemergence herbicidal evaluation; type: in vivo, L.; conditions: rated 4-5 weeks after treatment
Summary of the method: (§2)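 Rating 0–9, visual, vs control; 4–5 wk after spraying seeded cups with compound in aq. acetone; conventional greenhouse care.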

[9] = test system: CASOB (Cassia obtusifolia); test: Preemergence herbicidal evaluation; type: in vivo, L.; conditions: rated 4-5 weeks after treatment
Summary of the method: as §2

[10] = test system: CHEAL (Chenopodium album); test: Preemergence herbicidal evaluation; type: in vivo, L.; conditions: rated 4-5 weeks after treatment
Summary of the method: as §2

GALAP (Galium aparine) [11] = test: Preemergence herbicidal evaluation; type: in vivo; conditions: rated 4-5 weeks after treatment
Summary of the method: as §2

[12] = test system: ECHCG (Echinochloa crus-galli); test: Preemergence herbicidal evaluation; type: in vivo, (L.) Beau; conditions: rated 4-5 weeks after treatment
Summary of the method: as §2

SETVI (Setaria viridis) [13] = test: Preemergence herbicidal evaluation; type: in vivo, (L.) Beau; conditions: rated 4-5 weeks after treatment
Summary of the method: as §2

ZEAMX (Corn, Field) = test: Preemergence herbicidal evaluation; type: in vivo, Zea mays, L.; conditions: rated 4-5 weeks after treatment
[14] = test system: MOOVA (Monochoria vaginalis); test: Flooded paddy, preemergence weed control; type: in vivo, Presl.; conditions: rated 3-4 weeks after treatment, 0-9 rating scale
Summary of the method: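 In this preemergence paddy assay, weed seeds or organs are sown at up to 0.5 cm in silt loam and covered by 1.5–3 cm of water for the full test period. After treatment the pots are kept in a greenhouse, and herbicidal effect is rated 0-9 visually against a control.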

ORYSAT (Rice, Tebonnet) = test: Flooded paddy, post-transplant rice tolerance; type: in vivo, Oryza sativa, (L.) Tebonnet; conditions: flooded paddy, post-transplant rice, rated 3-4 weeks after treatment, 0-9 rating scale
Summary of the method: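 Scores (0-9) reflect visual injury relative to untreated plants in flooded silt loam. Each pot held two transplanted ten-day-old seedlings under 1.5 to 3 cm standing water in the greenhouse.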

Cn1c(C(F)(F)F)cc(=O)n(-c2ccc3snc(C4OC(=O)C(C)(C)O4)c3c2)c1=O (stereo not drawn) [Compound 71, 3-[3-(4,4-dimethyl-5-oxo-1,3-dioxolan-2-yl)-1,2-benzisothiazol-5-yl]-1-methyl-6-(trifluoromethyl)uracil]
ABUTH herbicidal rating ([1]; rate 0.0320 kg/ha): 9.0 | ABUTH herbicidal rating ([1]; rate 0.0620 kg/ha): 9.0 | GALAP herbicidal rating (GALAP (Galium aparine) [2]; rate 0.0320 kg/ha): 2.0 | GALAP herbicidal rating (GALAP (Galium aparine) [2]; rate 0.0620 kg/ha): 7.0 | IPOHE herbicidal rating ([3]; rate 0.0320 kg/ha): 9.0 | IPOHE herbicidal rating ([3]; rate 0.0620 kg/ha): 9.0 | SETVI herbicidal rating (SETVI (Setaria viridis) [4]; rate 0.0320 kg/ha): 2.0 | SETVI herbicidal rating (SETVI (Setaria viridis) [4]; rate 0.0620 kg/ha): 7.0 | GLXMAW herbicidal rating ([5]; rate 0.0320 kg/ha): 4.5 | GLXMAW herbicidal rating ([5]; rate 0.0620 kg/ha): 4.5 | TRZAWR herbicidal rating ([6]; rate 0.0320 kg/ha): 3.0 | TRZAWR herbicidal rating ([6]; rate 0.0620 kg/ha): 3.5 | Preemergence herbicidal rating ABUTH ([7]; Rate 0.0620 kg/ha): 8.0 | Preemergence herbicidal rating ABUTH ([7]; Rate 0.1250 kg/ha): 9.0 | Preemergence herbicidal rating ABUTH ([7]; Rate 0.2500 kg/ha): 9.0 | Preemergence herbicidal rating AMBEL ([8]; Rate 0.0620 kg/ha): 8.0 | Preemergence herbicidal rating AMBEL ([8]; Rate 0.1250 kg/ha): 9.0 | Preemergence herbicidal rating AMBEL ([8]; Rate 0.2500 kg/ha): 9.0 | Preemergence herbicidal rating CASOB ([9]; Rate 0.0620 kg/ha): 3.5 | Preemergence herbicidal rating CASOB ([9]; Rate 0.1250 kg/ha): 6.5 | Preemergence herbicidal rating CASOB ([9]; Rate 0.2500 kg/ha): 7.5 | Preemergence herbicidal rating CHEAL ([10]; Rate 0.0620 kg/ha): 9.0 | Preemergence herbicidal rating CHEAL ([10]; Rate 0.1250 kg/ha): 9.0 | Preemergence herbicidal rating CHEAL ([10]; Rate 0.2500 kg/ha): 9.0 | Preemergence herbicidal rating GALAP (GALAP (Galium aparine) [11]; Rate 0.0620 kg/ha): 6.0 | Preemergence herbicidal rating GALAP (GALAP (Galium aparine) [11]; Rate 0.1250 kg/ha): 9.0 | Preemergence herbicidal rating GALAP (GALAP (Galium aparine) [11]; Rate 0.2500 kg/ha): 9.0 | Preemergence herbicidal rating ECHCG ([12]; Rate 0.0620 kg/ha): 5.5 | Preemergence herbicidal rating ECHCG ([12]; Rate 0.1250 kg/ha): 8.0 | Preemergence herbicidal rating ECHCG ([12]; Rate 0.2500 kg/ha): 8.0 | Preemergence herbicidal rating SETVI (SETVI (Setaria viridis) [13]; Rate 0.0620 kg/ha): 8.0 | Preemergence herbicidal rating SETVI (SETVI (Setaria viridis) [13]; Rate 0.1250 kg/ha): 9.0 | Preemergence herbicidal rating SETVI (SETVI (Setaria viridis) [13]; Rate 0.2500 kg/ha): 9.0 | Preemergence herbicidal rating ZEAMX (ZEAMX (Corn, Field); Rate 0.0620 kg/ha): 5.5 | Preemergence herbicidal rating ZEAMX (ZEAMX (Corn, Field); Rate 0.1250 kg/ha): 8.0 | Preemergence herbicidal rating ZEAMX (ZEAMX (Corn, Field); Rate 0.2500 kg/ha): 8.5 | herbicidal rating, MOOVA ([14]; rate 0.0080 kg/ha): 0.0 | herbicidal rating, MOOVA ([14]; rate 0.0320 kg/ha): 0.0 | herbicidal rating, MOOVA ([14]; rate 0.1250 kg/ha): 0.0 | herbicidal rating, ORYSAT (rice tolerance) (ORYSAT (Rice, Tebonnet); rate 0.0080 kg/ha): 0.0 | herbicidal rating, ORYSAT (rice tolerance) (ORYSAT (Rice, Tebonnet); rate 0.0320 kg/ha): 0.0 | herbicidal rating, ORYSAT (rice tolerance) (ORYSAT (Rice, Tebonnet); rate 0.1250 kg/ha): 0.0
